Results published in patent US10875829B1, “Azetidine derivatives useful as modulators of cortical catecholaminergic neurotransmission” (Integrative Research Laboratories Sweden AB, priority 2016, dated 2020).
Structures can show the parent of a compound that is named as a salt. Marks after values point to notes of the source that are not given here.

Tests used:
Arc mRNA = assay: m-RNA analysis: tissue levels of Arc in brain regions; format: in vivo, rats; details: 33 μmol/kg s.c., 65 min before sacrifice, control saline, n=5
Experimental: Sesack et al. (Anatom Substr Glut-Dopamine Inter. Annals of NY AcadSci, 2003, 1003; 36-52) discloses that the dopaminergic systems of the brain interact strongly with central glutamate neurotransmission. To investigate potential effects of compounds as disclosed herein on cortical and striatal NMDA type glutamate receptor related synaptic signaling, Arc mRNA induction was assessed upon acute administration. Arc (Arc/Arg3.1-activity regulated cytoskeleton-associated protein/activity-regulated gene 3.1; (Link W et al., Proc Natl Acad Sci, USA, 1995, 92; 5734-8 and Lyford G L et al., Neuron, 1995, 14; 433-45), is an immediate early gene (IEG), induced by synaptic activity, whose expression and localization at synaptic sites is triggered specifically by NMDA receptor activation and strongly related to neural plasticity (Steward and Worley, Neuron, 2001, 30; 227-40, Kawashima et al., PNAS, 2009, 106(1); 316-21 and Bramham et al., Exp Brain Res, 2010, 200; 125-40).
Animals were killed 60 min after the injection of the drugs by decapitation and the brains were dissected into […] different areas: Limbic system (containing nucleus accumbens, most parts of the olfactory tubercle, ventral pallidum), striatum, frontal cortex, hippocampus and the remaining cortex.
Total RNA was prepared by the guanidin isothiocyanate method (Chomczynski P and Sacchi N, Anal Biochem, 1987, 162(1); 156-9). RNA pellets were solved in RNAse-free water and stored at −80° C. The sample concentration was determined spectrophotometrically by a NanoDrop ND1000 (Saveen Werner). A quality indicator number and an integrity number of r-RNA were measured with an Experion (Bio-rad).
A two-step reversed transcription was performed by using a SuperScript III kit (Invitrogen). 1 μg of total RNA was reverse transcribed with 5 μl 2XRT Reaction Mix, 1 μl RT Enzyme Mix, in a total volume adjusted to 10 μl with DEPC-treated water. 1 U of E. coli RNase H was added. c-DNA was diluted 40 times and stored at −20° C.
Three sequences (one gene of interest and two reference genes) were amplified together in a triplex PCR-reaction. For real-time PCR measurements: 5 μl of c-DNA reaction was amplified in a 20 μl reaction mixture containing 10 μl PerfeCta Multiplex qPCR Supermix (Quanta, VWR), 3.5 μl RNAse-free water, 0.15 μM of each primer and 0.1 μM of each probe. Real-time PCR was measured on CFX96 (Bio-rad) using the following settings for all genes: 3 min pre-incubation at 95° C. followed by 40 cycles of denaturation at 95° C. for 15 s, annealing and elongation at 60° C. for 1 minute.
Reference genes are HPRT and cyclophilin.
Compounds and saline solution (control) as indicated above were administered s.c. 65 min before sacrificing the animals. Results are presented as percent of control means±SEM. Statistical significance was assessed using Student's t-test (2 tailed) vs controls. * denotes p<0.05, ** p<0.01, n=5, *** p<0.001, n=5.
Correct PCR products are confirmed by agarose gel electrophoresis (2%) PCR products are purified with PCR purification kit from Qiagen (Valencia, Calif., USA). All genes are sequenced at MWG, Germany. The amounts of gene of interests are normalized with the two reference genes HPRT and cyclophilin A with the equation delta-delta CT.

[1] = tested on: human alpha 2A adrenergic receptor and/or the non-selective adrenergic alpha 2 receptor; assay: In vitro binding studies, adrenergic alpha 2 receptors ([3H]RX 821002); design: species or system human and/or rat; details: concentration of 10 μM
Experimental: (The measurement was performed as described in Langin, D., Lafontan, M., Stilling, M. R. and Paris, H. (1989), [3H]RX821002: a new tool for the identification of alpha2A-adrenoceptors, Eur. J. Pharmacol. 167: 95.)
Cell membrane homogenates (48 μg protein) were incubated for 60 min at 22° C. with 1 nM [3H]RX 821002 in the absence or presence of the test compound in a buffer containing 50 mM Tris-HCl (pH 7.4), 2 mM MgCl2 and 1 mM EDTA. Nonspecific binding was determined in the presence of 100 μM (−)epinephrine. Following incubation, the samples were filtered rapidly under vacuum through glass fiber filters (GF/B, Packard) presoaked with 0.3% PEI and rinsed several times with ice-cold 50 mM Tris-HCl using a 96-sample cell harvester (Unifilter, Packard). The filters were dried then counted for radioactivity in a scintillation counter (Topcount, Packard) using a scintillation cocktail (Microscint 0, Packard).
The results are expressed as a percent inhibition of the control radioligand specific binding.
(antagonist radioligand). Membrane homogenates (rat) of cerebral cortex (160 μg protein) were incubated for 60 min at 22° C. with 0.5 nM [3H]RX 821002 in the absence or presence of the test compound in a buffer containing 50 mM Tris-HCl (pH 7.4), 2 mM MgCl2 and 1 mM EDTA. Nonspecific binding was determined in the presence of 100 μM (−)epinephrine. Following incubation, the samples were filtered rapidly under vacuum through glass fiber filters (GF/B, Packard) presoaked with 0.3% PEI and rinsed several times with ice-cold 50 mM Tris-HCl using a 96-sample cell harvester (Unifilter, Packard). The filters were dried then counted for radioactivity in a scintillation counter (Topcount, Packard) using a scintillation cocktail (Microscint 0, Packard). The results are expressed as a percent inhibition of the control radioligand specific binding. The standard reference compound was yohimbine, which was tested in each experiment at several concentrations to obtain a competition curve from which its IC50 was calculated.

SERT, NET and/or DAT = assay: Radioligand binding assays at the monoamine transporters, general statements; design: species or system human; details: concentration of each tested compound 10 μM
Description: A serotonin-norepinephrine-dopamine reuptake inhibitor (SNDRI), also known as a triple reuptake inhibitor (TRI), is a type of drug that acts as a combined reuptake inhibitor of the monoamine neurotransmitters serotonin, norepinephrine, and dopamine. It does this by concomitantly inhibiting the serotonin transporter (SERT), norepinephrine transporter (NET), and dopamine transporter (DAT), respectively. Inhibition of the reuptake of these neurotransmitters increases their extracellular concentrations and, therefore, results in an increase in serotonergic, adrenergic, and dopaminergic neurotransmission across the brain. However, the use of triple re-uptake inhibitors (especially the inhibition of DAT) in humans are of potential concern due to abuse liability. Cocaine is the most well-known triple-uptake inhibitor and is widely encountered as a drug of abuse. […] One assay to measure affinity of said compounds as described herein may be the percent inhibition from radioligand binding assay using cells expressing human transporters and receptors (Table 5), wherein the concentration of each tested compound in such assay is 10 μM. Alternatively other assays known to the skilled person may be used to measure the affinity of said compounds, wherein the concentration of each tested compound in such assay is 10 μM.
Each compound was tested in a single concentration at 1.0 E-5 M and in duplicate. […]

SMILES	Arc frontal cortex ± SEM (Arc mRNA)	Arc striatum ± SEM (Arc mRNA)	inhibition of the binding of a radioactively labeled ligand [1]	affinity to SERT, NET and/or DAT (percent inhibition) (SERT, NET and/or DAT)
Fc1cccc(OC2CNC2)c1F [Example 1A, 3-(2,3-difluorophenoxy)azetidine hydrochloric acid salt]	236 ± 9*** % of control means	149 ± 11* % of control means	more than 93%	
Fc1cc(F)c(F)c(OC2CNC2)c1 [Example 2, 3-(2,3,5-trifluorophenoxy)azetidine hydrochloric acid salt]	96 ± 20 % of control means	104 ± 12 % of control means		
Fc1cc(F)c(F)c(OC2CNC2)c1F [Example 3, 3-(2,3,5,6-tetrafluorophenoxy)-azetidine hydrochloric acid salt]	149 ± 11** % of control means	141 ± 9.0** % of control means	more than 93%	
Fc1ccc(F)c(OC2CNC2)c1F [Example 20, 3-(2,3,6-trifluorophenoxy)azetidine hydrochloric acid salt]			more than 93%	
Fc1cc(F)cc(OC2CNC2)c1.O=C(O)C(O)C(O)C(=O)O [Example 52B, 3-(3,5-difluorophenoxy)azetidine (+)-tartaric acid salt]	148 ± 6.9** % of control means	106 ± 7.1 % of control means		
Fc1cc(F)cc(OC2CNC2)c1 [Example 52C, 3-(3,5-difluorophenoxy)azetidine hydrochloric acid salt]			more than 93%	
Clc1ccc(OC2CNC2)cc1Cl [Reference Compound, 3-(3,4-dichlorophenoxy)azetidine hydrochloric acid salt, reference compound]				higher than 75%
